System: L. infantum promastigotes
Assay: Activity against Leishmania infantum promastigotes (resazurin assay)
Format: cell-based, Leishmania infantum (MHOM/MA/67/ITMAP-263)
Conditions: Leishmania infantum; promastigotes, 72 h; 95% CI in brackets
Description: Promastigotes from the L. infantum strain (MHOM/MA/67/ITMAP-263) were cultivated in 5 ml of Schneider's insect medium, which was supplemented with 10% heat-inactivated fetal bovine serum (FBS), 200 U ml^−1 of penicillin/streptomycin, 6 μg ml^−1 of phenol red, and 5 mM of HEPES. The cultures were maintained in an incubator at 27 °C and diluted to a concentration of 2 × 10^5 cells per ml every 5 days. For the assays the parasites used were equivalent to late/log with two or three days of culture.
The efficacy of the compounds against L. infantum promastigotes was evaluated using a resazurin-based assay. Parasites were added to 100 μl of serial dilutions of the compounds in supplemented complete medium at a cell density of 5 × 10^5 ml^−1. As a quality control, a dose–response curve with the antileishmanial drug miltefosine was included in all assays. The final volume of each assay was 200 μl per well, and each condition was tested in duplicate. After a 72-hour incubation under specific conditions for each parasite, 20 μl of a 0.5 mM resazurin solution was added, and the plates were incubated for an additional 4 hours under the same conditions. Fluorescence was measured at 544 nm for excitation and 590 nm for emission using a Synergy 2 Multi-Mode Reader (Biotek, Winooski, VT, USA). Results were expressed as the percentage of parasite growth inhibition compared to controls (untreated parasites) and represent the average of at least three independent experiments. The effect was evaluated by determining the IC50 value (the concentration required to inhibit 50% growth), calculated using non-linear regression curves via GraphPad Prism version 8.1.1 for Windows (GraphPad Software, San Diego, CA, USA).
O=C(Cc1ccc(C23CC4CC(CC(C4)C2)C3)cc1)NCCn1ccnc1[N+](=O)[O-] [5a, 2-[4-(1-Adamantyl)phenyl]-N-[2-(2-nitro-1H-imidazol-1-yl)ethyl] acetamide] showed an IC50 of 3.48 µM. Compound O=C(NCCn1cnc([N+](=O)[O-])n1)c1ccc(C23CC4CC(CC(C4)C2)C3)cc1 [6a, 4-(1-Adamantyl)-N-[2-(3-nitro-1H-1,2,4-triazol-1-yl)ethyl] benzamide] has an IC50 of 0.74 µM. Compound O=C(Nc1ccc(C23CC4CC(CC(C4)C2)C3)cc1)c1ccc([N+](=O)[O-])o1 [7a, N-[4-(1-Adamantyl)phenyl]-5-nitrofuran-2-carboxamide] has an IC50 of 0.76 µM. Compound O=C(CCc1ccc(C23CC4CC(CC(C4)C2)C3)cc1)NCCCn1cnc([N+](=O)[O-])n1 [6f, 3-[4-(1-Adamantyl)phenyl]-N-[3-(3-nitro-1H-1,2,4-triazol-1-yl)propyl]propanamide] has an IC50 of 0.39 µM.

System: bloodstream-form Trypanosoma brucei
Assay: Activity against bloodstream-form Trypanosoma brucei (Alamar Blue growth inhibition)
Format: cell-based, Trypanosoma brucei (strain 427)
Conditions: Trypanosoma brucei; bloodstream form; concentration that inhibits growth by 50%; read-out: T. brucei IC50
Description: (§1) Bloodstream form T. brucei (strain 427) were cultured at 37 °C in modified Iscove's medium. Trypanocidal activity was assessed by growing parasites in microtiter plates in the presence of various drug concentrations. […] The plates were incubated for 48 hours at 37 °C and 20 μL Alamar Blue was then added to each well. After an additional overnight incubation, the fluorescence was determined using a Gemini fluorescent plate reader (Molecular Devices). Inhibition of growth was calculated by comparison with control values and IC50 and IC90 values were determined in triplicate using linear regression analysis.
In the case of O=C(NCCn1cnc([N+](=O)[O-])n1)c1ccc(C23CC4CC(CC(C4)C2)C3)cc1 [6a, 4-(1-Adamantyl)-N-[2-(3-nitro-1H-1,2,4-triazol-1-yl)ethyl] benzamide], the IC50 is reported as 230 ± 50 nM. Compound O=C(Nc1ccc(C23CC4CC(CC(C4)C2)C3)cc1)c1ccc([N+](=O)[O-])o1 [7a, N-[4-(1-Adamantyl)phenyl]-5-nitrofuran-2-carboxamide] has an IC50 of 91 ± 5 nM. For O=C(CCc1ccc(C23CC4CC(CC(C4)C2)C3)cc1)NCCCn1cnc([N+](=O)[O-])n1 [6f, 3-[4-(1-Adamantyl)phenyl]-N-[3-(3-nitro-1H-1,2,4-triazol-1-yl)propyl]propanamide], the IC50 was 140 ± 20 nM.

Same assay, conditions: Trypanosoma brucei; bloodstream form; concentration that inhibits growth by 90%; read-out: T. brucei IC90
Work on O=C(NCCn1cnc([N+](=O)[O-])n1)c1ccc(C23CC4CC(CC(C4)C2)C3)cc1 [6a, 4-(1-Adamantyl)-N-[2-(3-nitro-1H-1,2,4-triazol-1-yl)ethyl] benzamide] yielded an IC90 of 360 ± 30 nM. For O=C(Nc1ccc(C23CC4CC(CC(C4)C2)C3)cc1)c1ccc([N+](=O)[O-])o1 [7a, N-[4-(1-Adamantyl)phenyl]-5-nitrofuran-2-carboxamide], the IC90 was 220 ± 10 nM. With O=C(CCc1ccc(C23CC4CC(CC(C4)C2)C3)cc1)NCCCn1cnc([N+](=O)[O-])n1 [6f, 3-[4-(1-Adamantyl)phenyl]-N-[3-(3-nitro-1H-1,2,4-triazol-1-yl)propyl]propanamide] the IC90 was 280 ± 10 nM.

Same assay, conditions: ratio of IC50 values obtained with L6 cells and T. brucei
In the case of O=C(NCCn1cnc([N+](=O)[O-])n1)c1ccc(C23CC4CC(CC(C4)C2)C3)cc1 [6a, 4-(1-Adamantyl)-N-[2-(3-nitro-1H-1,2,4-triazol-1-yl)ethyl] benzamide], the “S.I. (selectivity index)” value is reported as 120. With O=C(CCc1ccc(C23CC4CC(CC(C4)C2)C3)cc1)NCCCn1cnc([N+](=O)[O-])n1 [6f, 3-[4-(1-Adamantyl)phenyl]-N-[3-(3-nitro-1H-1,2,4-triazol-1-yl)propyl]propanamide] the “S.I. (selectivity index)” value was 134.

System: T. cruzi intracellular amastigotes
Assay: microbe, parasite or virus in culture
Format: cell-based, Trypanosoma cruzi CL Brener PpyRE9h:mScarlet
Conditions: Trypanosoma cruzi, 120 h; in HeLa cells, 5 days
Description: Assays were performed in 96-well black (clear bottom) microtitre plates (Corning Inc.). HeLa ^† cells were seeded at 10^4 per well, incubated for 3 days, and then infected with T. cruzi CL Brener PpyRE9h : mScarlet[25] culture form trypomastigotes (1 : 1 multiplicity of infection). After 16 hours, extracellular parasites were removed by washing in growth medium (×3), test compounds were added, and the plates incubated for 5 days. Fluorescence intensities were then determined using a BMG FLUOstar Omega plate reader (ex 545 nm, em 590 nm), and the data analysed using GraphPad Prism 9.0 software. The values were expressed as IC50/90 ± SD and are the mean of triplicate experiments.
O=C(NCCn1cnc([N+](=O)[O-])n1)c1ccc(C23CC4CC(CC(C4)C2)C3)cc1 [6a, 4-(1-Adamantyl)-N-[2-(3-nitro-1H-1,2,4-triazol-1-yl)ethyl] benzamide] gave an IC50 of 4.88 ± 0.51 µM and an IC90 of 21.4 ± 3.4 µM. Compound O=C(CCc1ccc(C23CC4CC(CC(C4)C2)C3)cc1)NCCCn1cnc([N+](=O)[O-])n1 [6f, 3-[4-(1-Adamantyl)phenyl]-N-[3-(3-nitro-1H-1,2,4-triazol-1-yl)propyl]propanamide] has an IC50 of 2.44 ± 0.57 µM and an IC90 of 8.23 ± 1.78 µM.

System: not listed separately
Assay: Cytotoxicity on THP-1-derived macrophages (MTT assay)
Format: cell-based
Conditions: human, THP-1-derived macrophages (PMA-differentiated), value or interval
Description: The THP-1 cell line, a human leukemia line (ATCC® TIB-202™), was cultured in RPMI-1640 medium supplemented with 10% heat-inactivated fetal bovine serum (FBS), 2 mM. L-Glutamine, 100 IU mL^−1 penicillin/streptomycin, and 20 mM HEPES. The cells were maintained in a humidified incubator at 37 °C with 5% CO2. Subculturing was performed every three days, using 20 mL of media at a concentration of 2 × 10^5 cells per mL in a T75 flask. All cell culture reagents were purchased from Lonza Bioscience (Morrisville, NC).
The cytotoxicity of the compounds on THP-1-derived macrophages was evaluated using the colorimetric MTT assay (3-(4,5-dimethylthiazol-2-yl)-2,5-diphenyltetrazolium bromide), as described in Magoulas et al. (2021).[28] THP-1 cells were suspended in complete RPMI medium at a density of 1 × 10^6 cells per mL, and 100 μL of this suspension was seeded into each well of a 96-well plate. The cells were differentiated into macrophages by adding 40 ng mL^−1 of phorbol-myristate 13-acetate (PMA, Sigma, Saint Louis, MI, USA) for 24 hours, followed by replacement with fresh medium for an additional 24 hours. Subsequently, the cells were incubated with 100 μL of various compounds, diluted in complete RPMI medium, at concentrations ranging from 100 to 12.5 μM. Each condition was tested in triplicate. After 72 hours of incubation at 37 °C with 5% CO2, the medium was removed, and 200 μL of a 0.5 mg mL^−1 MTT solution, diluted in RPMI, was added to each well. The plates were incubated for an additional 4 hours. Following this incubation, 160 μL of the medium was removed and replaced with 160 μL of 2-propanol. Absorbance was measured at 570 nm using a Synergy 2 Multi-Mode Reader (Biotek, Winooski, VT, USA). Cytotoxicity was determined by presenting the CC50 (the concentration of the drug that reduces cell viability by 50%) interval or by calculating the CC50 value through non-linear regression analysis using GraphPad Prism version 8.1.1 for Windows (GraphPad Software, San Diego, CA, USA). The results represent the average of at least three independent experiments.
In the case of O=C(Cc1ccc(C23CC4CC(CC(C4)C2)C3)cc1)NCCn1ccnc1[N+](=O)[O-] [5a, 2-[4-(1-Adamantyl)phenyl]-N-[2-(2-nitro-1H-imidazol-1-yl)ethyl] acetamide], the CC50 at 72 h is reported as 25 to 50 µM. Compound O=C(NCCn1cnc([N+](=O)[O-])n1)c1ccc(C23CC4CC(CC(C4)C2)C3)cc1 [6a, 4-(1-Adamantyl)-N-[2-(3-nitro-1H-1,2,4-triazol-1-yl)ethyl] benzamide] has a CC50 at 72 h of 25 to 50 µM. For O=C(Nc1ccc(C23CC4CC(CC(C4)C2)C3)cc1)c1ccc([N+](=O)[O-])o1 [7a, N-[4-(1-Adamantyl)phenyl]-5-nitrofuran-2-carboxamide], the CC50 at 72 h was 6.25 to 25 µM. O=C(CCc1ccc(C23CC4CC(CC(C4)C2)C3)cc1)NCCCn1cnc([N+](=O)[O-])n1 [6f, 3-[4-(1-Adamantyl)phenyl]-N-[3-(3-nitro-1H-1,2,4-triazol-1-yl)propyl]propanamide] showed a CC50 at 72 h of 50 to 100 µM.

System: T. cruzi epimastigotes
Assay: Activity against Trypanosoma cruzi epimastigotes (Alamar Blue growth inhibition)
Format: cell-based, Trypanosoma cruzi (strain CL Brener)
Conditions: CL Brener
Description: as §1, with “Trypanocidal” for “Bloodstream form T. brucei (strain 427) were cultured at 37 °C in modified Iscove's medium. Trypanocidal”, “4 days” for “48 hours”, “28” for “37”, “Blue (Biosource UK Ltd)” for “Blue”, “3 days” for “overnight”
O=C(NCCn1cnc([N+](=O)[O-])n1)c1ccc(C23CC4CC(CC(C4)C2)C3)cc1 [6a, 4-(1-Adamantyl)-N-[2-(3-nitro-1H-1,2,4-triazol-1-yl)ethyl] benzamide] showed an IC50 of 540 ± 20 nM and an IC90 of 1200 ± 10 nM. O=C(Nc1ccc(C23CC4CC(CC(C4)C2)C3)cc1)c1ccc([N+](=O)[O-])o1 [7a, N-[4-(1-Adamantyl)phenyl]-5-nitrofuran-2-carboxamide] gave an IC50 greater than 25 nM and an IC90 greater than 25 nM. Compound O=C(CCc1ccc(C23CC4CC(CC(C4)C2)C3)cc1)NCCCn1cnc([N+](=O)[O-])n1 [6f, 3-[4-(1-Adamantyl)phenyl]-N-[3-(3-nitro-1H-1,2,4-triazol-1-yl)propyl]propanamide] has an IC50 of 440 ± 20 nM and an IC90 of 910 ± 10 nM.

System: L6 cells
Assay: Cytotoxic activity against rat skeletal myoblast L6 cells (Alamar Blue)
Format: cell-based
Conditions: 120 h, cytotoxicity, 5 days
Description: The cytotoxicity against mammalian cells was assessed using microtitre plates. Briefly, L6 cells (a rat skeletal muscle line) were seeded at 1 × 10^4 mL^−1 in 200 μL of RPMI-1640 growth medium (with 10% fetal calf serum) containing 7 different compound concentrations in a range previously established to encompass both the IC50 and IC90 values. The plates were incubated for 5 days at 37 °C and 20 μL Alamar Blue (Biosource Ltd, Wilton, North Yorkshire England.) was then added to each well. After an additional 8 hours incubation, the fluorescence was determined using a Gemini fluorescent plate reader (Molecular Devices). Inhibition of growth was calculated by comparison with control values and IC50 and IC90 values were determined in triplicate using linear regression analysis.
In the case of O=C(NCCn1cnc([N+](=O)[O-])n1)c1ccc(C23CC4CC(CC(C4)C2)C3)cc1 [6a, 4-(1-Adamantyl)-N-[2-(3-nitro-1H-1,2,4-triazol-1-yl)ethyl] benzamide], the IC50 is reported as 28 ± 7 µM. Compound O=C(Nc1ccc(C23CC4CC(CC(C4)C2)C3)cc1)c1ccc([N+](=O)[O-])o1 [7a, N-[4-(1-Adamantyl)phenyl]-5-nitrofuran-2-carboxamide] has an IC50 of less than 0.03 µM. For O=C(CCc1ccc(C23CC4CC(CC(C4)C2)C3)cc1)NCCCn1cnc([N+](=O)[O-])n1 [6f, 3-[4-(1-Adamantyl)phenyl]-N-[3-(3-nitro-1H-1,2,4-triazol-1-yl)propyl]propanamide], the IC50 was 19 ± 2 µM.

From PMC12679539, “Synthesis and evaluation of nitroheterocyclic aromatic adamantane amides with trypanocidal activity. Part II” (RSC Medicinal Chemistry, 2025)
